Measured values: patent publication US10913738B2 (BRISTOL-MYERS SQUIBB COMPANY, priority 2017, dated 2021)
Read-outs that look alike come from different tables or passages of the source.

Legend:
[1] = system: MLKL phosphorylation in HT29-L23 human colorectal adenocarcinoma cells; assay: MLKL Phosphorylation High-Content Assay; assay type: cell-based
Summary of the method: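 IC50 and Ymax obtained by 4-parameter logistic fitting of MLKL phosphorylation, measured as mean circ-ring average intensity ratio from high-content images. Staining used an anti-phospho-S358 MLKL antibody overnight at 4° C., following six-hour cell incubation at 37° C.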

[2] = biological target: T1, His-GST-TVMV-hRIPK1(1-324) (Homo sapiens, UniProt Q13546); assay: RIPK1 HTRF Binding Assay
T1 construct: The coding region of human RIPK1(1-324) flanked by NdeI site at 5′ end; made in house; host or cells: Spodoptera frugiperda (Sf9) insect cells, baculovirus
T1 sequence (Q13546 1-324): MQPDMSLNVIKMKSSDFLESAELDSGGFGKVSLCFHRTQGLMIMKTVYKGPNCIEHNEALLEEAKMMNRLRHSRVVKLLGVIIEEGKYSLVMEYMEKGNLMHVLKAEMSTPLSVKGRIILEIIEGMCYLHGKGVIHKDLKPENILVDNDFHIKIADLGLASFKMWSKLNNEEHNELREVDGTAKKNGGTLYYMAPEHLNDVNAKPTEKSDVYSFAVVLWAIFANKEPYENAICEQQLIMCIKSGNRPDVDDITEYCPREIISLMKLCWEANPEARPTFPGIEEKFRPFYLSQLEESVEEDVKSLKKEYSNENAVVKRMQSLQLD

[3] = Homo sapiens, x marks IC50 class 20-200 nM, read-out: pMLKL cell activity 20-200 nM
[4] = x marks IC50 class <20 nM, read-out: RIPK1 HTRF binding <20 nM
[5] = Homo sapiens, x marks IC50 class >200 nM, read-out: pMLKL cell activity >200 nM
[6] = x marks IC50 class 20-200 nM, read-out: RIPK1 HTRF binding 20-200 nM
[7] = Homo sapiens, x marks IC50 class <20 nM, read-out: pMLKL cell activity <20 nM

Row | Compound | IC50 [1, 3] [nM] | IC50 [2, 4] [nM] | IC50 [2, 6] [nM] | also measured
1 | COc1nc(C)c(-c2ccn3nc(N)nc3c2)cc1C(=O)NCc1cccc(OCC(F)(F)F)c1 [Example 334, 5-(2-amino-[1,2,4]triazolo[1,5-a]pyridin-7-yl)-2-methoxy-6-methyl-N-(3-(2,2,2-trifluoroethoxy)benzyl)nicotinamide] | 20 to 200 | < 20 |  | 
2 | CCOc1ncc(-c2ccn3nc(N)nc3c2)cc1C(=O)NCCc1ccccc1Oc1ccccc1 [Example 269, 5-{2-amino-[1,2,4]triazolo[1,5-a]pyridin-7-yl}-2-ethoxy-N-[2-(2-phenoxyphenyl)ethyl]pyridine-3-carboxamide] | 20 to 200 | < 20 |  | 
3 | COc1nc(C)c(-c2ccn3nc(N)nc3c2)cc1C(=O)NCc1cc(F)cc(F)c1O[C@@H]1CCN(C)C1 [Example 359, (R)-5-(2-amino-[1,2,4]-triazolo[1,5-a]pyridin-7-yl)-N-(3,5-difluoro-2-((1-methylpyrrolidin-3-yl)oxy)benzyl)-2-methoxy-6-methylnicotinamide] |  |  | 20 to 200 | IC50 [1, 5]: > 200 nM
4 | Cc1ncc(-c2ccn3nc(N)nc3c2)cc1C(=O)NCc1cccc(OCC2CC2)c1 [Example 243, 5-{2-amino-[1,2,4]triazolo[1,5-a]pyridin-7-yl}-N-{[3-(cyclopropylmethoxy)phenyl]methyl}-2-methylpyridine-3-carboxamide] |  |  | 20 to 200 | IC50 [1, 5]: > 200 nM
5 | COc1ncc(-c2ccn3nc(N)nc3c2)cc1C(=O)NCc1c(F)cccc1OCC1CCC1 [Example 146, 5-{2-amino-[1,2,4]triazolo[1,5-a]pyridin-7-yl}-N-{[2-(cyclobutylmethoxy)-6-fluorophenyl]methyl}-2-methoxypyridine-3-carboxamide] |  | < 20 |  | IC50 [1, 7]: < 20 nM
6 | Cc1cnc(-c2ccn3nc(N)nc3c2)nc1C(=O)N[C@H](C)c1cc(OC(F)(F)F)ccc1F [Example 407, (R)-2-(2-amino-[1,2,4]triazolo[1,5-a]pyridin-7-yl)-N-(1-(2-fluoro-5-(trifluoromethoxy)phenyl)ethyl)-5-methylpyrimidine-4-carboxamide] | 20 to 200 |  | 20 to 200 | 
7 | Cc1nc(Cl)c(C(=O)N[C@H](C)c2cc(OC(F)(F)F)ccc2F)cc1-c1ccn2nc(N)nc2c1 [Example 323, (R)-5-(2-amino-[1,2,4]triazolo[1,5-a]pyridin-7-yl)-2-chloro-N-(1-(2-fluoro-5-(trifluoromethoxy)phenyl)ethyl)-6-methylnicotinamide] | 20 to 200 |  | 20 to 200 | 
8 | COc1nc(C)c(-c2ccn3nc(N)nc3c2)cc1C(=O)NCc1cc(F)cc(F)c1OC1CC(C)OC(C)C1 (centres unmarked) [Example 353, 5-(2-amino-[1,2,4]triazolo[1,5-a]pyridin-7-yl)-N-(2-((2,6-dimethyltetrahydro-2H-pyran-4-yl)oxy)-3,5-difluorobenzyl)-2-methoxy-6-methylnicotinamide] | 20 to 200 | < 20 |  | 
9 | Nc1nc2cc(-c3cnc(Cl)c(C(=O)NCc4ccccc4OC4CCOC4)c3)ccn2n1 (centres unmarked) [Example 165] | 20 to 200 |  | 20 to 200 | 
10 | COc1ncc(-c2ccn3nc(N)nc3c2)cc1C(=O)N1CCCC(Sc2ccccc2)C1 (centres unmarked) [Example 424, (5-(2-amino-[1,2,4]triazolo[1,5-a]pyridin-7-yl)-2-methoxypyridin-3-yl)(3-(phenylthio)piperidin-1-yl)methanone] | 20 to 200 |  | 20 to 200 | 
11 | CC(CCNC(=O)c1ccnc(-c2ccn3nc(N)nc3c2)c1)c1ccccc1 (centres unmarked) [Example 72, 2-{2-Amino-[1,2,4]triazolo[1,5-a]pyridin-7-yl}-N-(3-phenylbutyl)pyridine-4-carboxamide] |  |  | 20 to 200 | IC50 [1, 5]: > 200 nM
12 | COc1ncc(C(=O)NCc2c(F)cccc2OCC2CCC2)cc1-c1ccn2nc(N)nc2c1 [Example 25, 5-{2-Amino-[1,2,4]triazolo[1,5-a]pyridin-7-yl}-N-{[2-(cyclobutylmethoxy)-6-fluorophenyl]methyl}-6-methoxypyridine-3-carboxamide] | 20 to 200 | < 20 |  | 
13 | Cc1ncc(-c2ccn3nc(N)nc3c2)cc1C(=O)NCc1ccccc1OC1CCCCC1 [Example 239, 5-{2-amino-[1,2,4]triazolo[1,5-a]pyridin-7-yl}-N-{[2-(cyclohexyloxy)phenyl]methyl}-2-methylpyridine-3-carboxamide] |  | < 20 |  | IC50 [1, 7]: < 20 nM
14 | Cc1ncc(-c2ccn3nc(N)nc3c2)cc1C(=O)NCc1cc(F)cc(F)c1OC1CCCOC1 (centres unmarked) [Example 314, 5-(2-amino-[1,2,4]triazolo[1,5-a]pyridin-7-yl)-N-(3,5-difluoro-2-((tetrahydro-2H-pyran-3-yl)oxy)benzyl)-2-methylnicotinamide] | 20 to 200 |  | 20 to 200 | 
15 | Nc1nc2cc(-c3cnc(Cl)c(C(=O)NCc4ccc(F)cc4OCC4CC4)c3)ccn2n1 [Example 1, 5-(2-Amino-[1,2,4]triazolo[1,5-a]pyridin-7-yl)-2-chloro-N-([2-(cyclopropylmethoxy)-4-fluorophenyl]methyl)pyridine-3-carboxamide] |  |  |  | IC50 [1, 5]: > 200 nM; IC50 ([2]; x marks IC50 class >200 nM, read-out: RIPK1 HTRF binding >200 nM): > 200 nM
16 | Cc1ncc(C(=O)NCc2cc(F)cc(F)c2OCC2CCCC2)cc1-c1ccn2nc(N)nc2c1 [Example 259, 5-{2-amino-[1,2,4]triazolo[1,5-a]pyridin-7-yl}-N-{[2-(cylcopentylmethoxy)-3,5-difluorophenyl]methyl}-6-methylpyridine-3-carboxamide] | 20 to 200 | < 20 |  | 
17 | COc1ncc(-c2ccn3nc(N)nc3c2)cc1C(=O)Nc1cnn(C(C)c2ccc(F)cc2)c1 (single isomer, unassigned) [Example 76-1] |  | < 20 |  | IC50 [1, 7]: < 20 nM
18 | Cc1ncc(-c2ccn3nc(N)nc3c2)cc1C(=O)NC(C)c1cc(OC(F)(F)F)ccc1F (centres unmarked) [Example 255, 5-{2-amino-[1,2,4]triazolo[1,5-a]pyridin-7-yl}-N-{1-[2-fluoro-5-(trifluoromethoxy)phenyl]ethyl}-2-methylpyridine-3-carboxamide] | 20 to 200 | < 20 |  | 
19 | Cc1nc(C)c(-c2ccn3nc(N)nc3c2)cc1C(=O)NCc1cc(F)cc(F)c1OC1CC(C)OC(C)C1 (centres unmarked) [Example 297, 5-(2-amino-[1,2,4]triazolo[1,5-a]pyridin-7-yl)-N-(2-((2,6-dimethyltetrahydro-2H-pyran-4-yl)oxy)-3,5-difluorobenzyl)-2,6-dimethylnicotinamide] | 20 to 200 |  | 20 to 200 | 
20 | COc1ncc(-c2ccn3nc(N)nc3c2)cc1NC(=O)Cc1cccc(C(F)(F)F)c1 [Example 416, N-(5-(2-amino-[1,2,4]triazolo[1,5-a]pyridin-7-yl)-2-methoxypyridin-3-yl)-2-(3-(trifluoromethyl)phenyl)acetamide] |  |  | 20 to 200 | IC50 [1, 5]: > 200 nM
21 | COc1ncc(-c2ccn3nc(N)nc3c2)cc1C(=O)NCc1cccc(F)c1OC1CCCC1 [Example 50, 5-{2-Amino-[1,2,4]triazolo[1,5-a]pyridin-7-yl}-N-{[2-(cyclopentyloxy)-3-fluorophenyl]methyl}-2-methoxypyridine-3-carboxamide] | 20 to 200 | < 20 |  | 
22 | CC(CCNC(=O)c1cc(-c2ccn3nc(N)nc3c2)cnc1Cl)c1ccccc1 (centres unmarked) [Example 169, 5-{2-amino-[1,2,4]triazolo[1,5-a]pyridin-7-yl}-2-chloro-N-(3-phenylbutyl)pyridine-3-carboxamide] |  |  | 20 to 200 | IC50 [1, 5]: > 200 nM
23 | Cc1ncc(-c2ccn3nc(N)nc3c2)cc1C(=O)NCc1c(F)cccc1OC1CCCC1 [Example 247, 5-{2-amino-[1,2,4]triazolo[1,5-a]pyridin-7-yl}-N-{[2-(cyclopentyloxy)-6-fluorophenyl]methyl}-2-methylpyridine-3-carboxamide] |  | < 20 |  | IC50 [1, 7]: < 20 nM
24 | Cc1ncc(-c2ccn3nc(N)nc3c2)cc1C(=O)NCc1c(F)cc(F)cc1OCC1CCCC1 [Example 228] | 20 to 200 | < 20 |  | 
25 | [2H]C([2H])(NC(=O)c1cc(-c2ccn3nc(N)nc3c2)cnc1OC)c1cc(OC(F)(F)F)ccc1F [Example 87, 5-{2-amino-[1,2,4]triazolo[1,5-a]pyridin-7-yl}-N-{[2-fluoro-5-(trifluoromethoxy)phenyl] (deutero)methyl}-2-methoxypyridine-3-carboxamide] | 20 to 200 | < 20 |  | 
26 | 5-(2-amino-[1,2,4]triazolo[1,5-a]pyridin-7-yl)-6-chloro-N-(2-flouro-5-(trifluoromethoxy)benzyl)nicotinamide [Example 373] |  | < 20 |  | IC50 ([1]; x marks IC50 class >200 nM, read-out: pMLKL cell activity >200 nM): > 200 nM
27 | Nc1nc2cc(-c3cncc(C(=O)NCc4c(F)cccc4OC4CCCC4)c3)ccn2n1 [Example 40, 5-{2-Amino-[1,2,4]triazolo[1,5-a]pyridin-7-yl}-N-{[2-(cyclopentyloxy)-6-fluorophenyl]methyl}pyridine-3-carboxamide] | 20 to 200 | < 20 |  | 
28 | Cc1ncc(-c2ccn3nc(N)nc3c2)cc1NC(=O)c1cc(OC(F)(F)F)ccc1F [Example 419, N-(5-(2-amino-[1,2,4]triazolo[1,5-a]pyridin-7-yl)-2-methylpyridin-3-yl)-2-fluoro-5-(trifluoromethoxy)benzamide] |  | < 20 |  | IC50 [1, 5]: > 200 nM
